PubChem BioAssay (NCI)
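Step 1: Grow cells in 96-well plates. Step 2: Expose to compound for 48 hours at 5 concentrations. Step 3: Interpolate endpoints linearly; if unreached, use highest concentration. At the GI50, growth is halved. The concentration for full growth arrest is given as TGI.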

What was measured:
Experiment in all cases: inhibition of tumour cell growth, NCI panel, 48 h
MDA-MB-231 breast = system: MDA-MB-231 breast
TK-10 renal = system: TK-10 renal
MALME-3M melanoma = system: MALME-3M melanoma
RXF 393 renal = system: RXF 393 renal
MDA-N = system: MDA-N
KM20L2 colon = system: KM20L2 colon
HL-60(TB) leukemia = system: HL-60(TB) leukemia
SNB-78 CNS = system: SNB-78 CNS
NCI-H460 lung = system: NCI-H460 lung
T-47D breast = system: T-47D breast

| Structure (SMILES) | TGI (MDA-MB-231 breast) [µM] | TGI (TK-10 renal) [µM] | TGI (MALME-3M melanoma) [µM] | TGI (RXF 393 renal) [µM] | TGI (MDA-N) [µM] | TGI (KM20L2 colon) [µM] | TGI (HL-60(TB) leukemia) [µM] | TGI (SNB-78 CNS) [µM] | TGI (NCI-H460 lung) [µM] | TGI (T-47D breast) [µM] | GI50 (HL-60(TB) leukemia) [µM] | GI50 (MDA-MB-231 breast) [µM] | GI50 (TK-10 renal) [µM] | GI50 (T-47D breast) [µM] | GI50 (MALME-3M melanoma) [µM] | GI50 (RXF 393 renal) [µM] | GI50 (KM20L2 colon) [µM] | GI50 (SNB-78 CNS) [µM] | GI50 (NCI-H460 lung) [µM] |
| --- | --- | --- | --- | --- | --- | --- | --- | --- | --- | --- | --- | --- | --- | --- | --- | --- | --- | --- | --- |
| CCn1cc(C(c2ccc(Cl)cc2)n2ccnc2)c2cc(Br)ccc21 (centres undefined) | 35.8 | 33.7 | 32.7 | 29.9 | 66.2 |  |  |  |  |  |  |  |  |  |  |  |  |  |  |
| COC1OC(=O)[C@H]2O[N+]([O-])=C(C)[C@@H]12 (some centres undefined) |  |  | > 100 | > 100 |  | > 100 | > 100 | > 100 | > 100 |  |  |  |  |  |  |  |  |  |  |
| C/C(=N\NC(=S)NC(C)C)c1nc2ncccc2[nH]1 | > 100 | 73.8 | > 100 | > 100 | > 100 |  | > 100 |  | > 100 | > 95.1 |  |  |  |  |  |  |  |  |  |
| O=C1CC(=O)N(c2ccccc2)N1/C(=C/c1ccccc1)c1ccccc1 | 30 | 48.6 |  | 36.5 | 34.3 |  |  |  | 39 | 67.8 |  |  |  |  |  |  |  |  |  |
| C=CC(=O)Nc1cccc(-c2nc(SC)nc(Nc3ccccc3OC)c2C#N)c1 | 4.33 | 4.02 | 3.44 | 5.42 |  |  | 13 |  |  | 4.34 | 2.53 | 1.83 | 1.99 | 1.59 | 1.54 | 1.95 |  |  |  |
| Nc1ccccc1Nc1ccccc1C(=O)[O-].Nc1ccccc1Nc1ccccc1C(=O)[O-].[Cu+2] |  | > 100 | > 100 |  |  | > 100 |  |  | > 100 |  |  |  |  |  |  |  |  |  |  |
| O=C(NS(=O)(=O)Nc1ccc(Cl)cc1)OCc1ccc(Cl)cc1Cl | 65.7 | 41.9 | 47.5 |  | 50.3 |  | 87.2 |  | 29.9 |  |  |  |  |  |  |  |  |  |  |
| CSC1=Nc2ccccc2N(C)c2c1c(-c1ccccc1)nn2C | > 100 | > 100 |  | > 100 | > 100 |  | 34.3 |  | > 100 | 49.7 |  |  |  |  |  |  |  |  |  |
| O=[Se]([O-])c1ccccc1.O=[Se]([O-])c1ccccc1.[OH3+].[OH3+].[Pt+2] |  |  | 54.2 | 40.6 |  | 35.1 | 5.66 | 37.5 | > 86.1 |  | 2.19 |  |  |  | 16.5 | 22.7 | 8.88 | 15.3 | 18.6 |
| CCC(=O)C(c1ccccc1)c1ccccn1 (centres undefined) | > 100 | > 100 | > 100 | > 100 | > 100 |  | > 100 |  | > 100 | > 100 |  |  |  |  |  |  |  |  |  |
| O=C(Nc1ccc(I)cc1C(=O)NCCO)c1cccs1 |  |  |  | > 100 |  |  | > 100 |  | > 100 |  |  |  |  |  |  |  |  |  |  |
| N#Cc1c(NC(=S)NC(=O)c2ccccc2)nc2c(c1-c1ccccc1)CCC2 | > 100 | > 100 | > 100 |  | > 100 |  | > 100 |  | > 100 | > 100 |  |  |  |  |  |  |  |  |  |
| CC(C)CC(N)C(=O)OCN1C(=O)C2C3C=CC(C2C1=O)C1C2C(=O)N(COC(=O)C(N)CC(C)C)C(=O)C2C31 (centres undefined) |  | > 100 | > 100 | > 100 |  | > 100 | 65.2 | > 100 | > 100 |  |  |  |  |  |  |  |  |  |  |
| Cc1[nH]c(/C=C2\C(=O)Nc3ccc(S(=O)(=O)Cc4c(Cl)cccc4Cl)cc32)c(C)c1C(=O)N1CCC[C@@H]1CN1CCCC1 | 3.16 | 3.85 |  |  |  |  | 5.49 |  |  | 35.9 | 1.97 | 1.57 | 1.92 | 12.2 |  |  |  |  |  |
